From patent US10947252B2, “Inhibitors of KEAP1-Nrf2 protein-protein interaction” (Janssen Pharmaceutica NV, priority 2018, dated 2021)

Legend:
[1] = system: Glo-Response ARE-luc2P HEK293 cell line; assay: ARE luciferase reporter cell-based assay; settings: Homo sapiens, HEK293, 24 h, average of results obtained;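 note: luciferase signal tracks Nrf2 activation of the ARE once compounds disrupt KEAP1-Nrf2 binding, read with One-Glo reagent, DMSO serving as low control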
[2] = molecular target: Kelch domain of human KEAP1 (321-624 aa) (Homo sapiens (Human), UniProt Q14145); assay: KEAP1 KELCH ThermoFluor binding assay; settings: KEAP Kelch […], 1,8-ANS, pH 7.0, average of results obtained, read-out: Tf Kd;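 note: Ligand-induced melting temperature shift of E. coli-expressed KEAP1 Kelch protein, Kd estimated from concentration-response curves of ΔTm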
Sequence of Kelch domain of human KEAP1 (321-624 aa) (Q14145 321-624): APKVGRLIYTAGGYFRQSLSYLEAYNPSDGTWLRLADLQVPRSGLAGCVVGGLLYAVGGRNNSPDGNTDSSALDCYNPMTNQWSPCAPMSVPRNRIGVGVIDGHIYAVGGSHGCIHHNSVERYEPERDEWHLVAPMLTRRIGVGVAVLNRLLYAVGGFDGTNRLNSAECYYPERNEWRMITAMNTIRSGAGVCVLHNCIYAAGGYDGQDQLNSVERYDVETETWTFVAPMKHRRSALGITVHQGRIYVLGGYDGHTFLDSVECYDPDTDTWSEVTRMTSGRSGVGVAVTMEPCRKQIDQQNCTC

SMILES | Kd [2] | EC50 [1]
Cc1ccc([C@H](c2ccn3c(C(F)(F)F)nnc3c2C)C(C)(C)C(=O)O)cc1CN1CC2(CNC2)Oc2ncccc2S1(=O)=O (single isomer, unassigned) [Example 339, (*R)-3-(3-((1′,1′-Dioxidospiro[azetidine-3,4′-pyrido[2,3-b][1,4,5]oxathiazepin]-2′(3′H)-yl)methyl)-4-methylphenyl)-2,2-dimethyl-3-(8-methyl-3-(trifluoromethyl)-[1,2,4]triazolo[4,3-a]pyridin-7-yl)propanoic Acid] | 80200 nM | 6320 nM
Cc1ccc(C(CC(=O)O)c2ccn3c(C(F)(F)F)nnc3c2C)nc1CN1C[C@@H]2CCCCN2c2ncc(F)cc2S1(=O)=O (stereo in doubt) [Example 496, 3-(6-(((*S)-3-Fluoro-5,5-dioxido-7,7a,8,9,10,11-hexahydro-6H-dipyrido[2,1-d:2′,3′-f][1,2,5]thiadiazepin-6-yl)methyl)-5-methylpyridin-2-yl)-3-(8-methyl-3-(trifluoromethyl)-[1,2,4]triazolo[4,3-a]pyridin-7-yl)propanoic Acid] | < 1 nM | 7.65 nM
Cc1ccc([C@@H](CC(=O)O)c2ccn3c(C(F)(F)F)nnc3c2C)cc1CN1CC2(COC2)Oc2ncccc2S1(=O)=O (single isomer, unassigned) [Example 261, (*R)-3-(3-((1′,1′-Dioxidospiro[oxetane-3,4′-pyrido[2,3-b][1,4,5]oxathiazepin]-2′(3′H)-yl)methyl)-4-methylphenyl)-3-(8-methyl-3-(trifluoromethyl)-[1,2,4]triazolo[4,3-a]pyridin-7-yl)propanoic Acid] | < 1 nM | 1390 nM
Cc1ccc(C(c2ccn3c(C(F)F)nnc3c2C)C(C)(C)C(=O)O)cc1CN1CC2(CCOCC2)Oc2ncccc2S1(=O)=O (racemic) [Example 52, (R/S)-3-(3-(Difluoromethyl)-8-methyl-[1,2,4]triazolo[4,3-a]pyridin-7-yl)-3-(3-((1′,1′-dioxido-2,3,5,6-tetrahydrospiro[pyran-4,4′-pyrido[2,3-b][1,4,5]oxathiazepin]-2′(3′H)-yl)methyl)-4-methylphenyl)-2,2-dimethylpropanoic Acid] | < 1 nM | 8.2 nM

Continued, in another order:

Kd [2] | SMILES | EC50 [1]
0.089 nM | Cc1ccc([C@@H](CC(=O)O)c2cc(OC3CC3)c3c(c2)nnn3C)cc1CN1C[C@H]2CCCN2c2ncccc2S1(=O)=O (single isomer, unassigned) [Example 6, (*R)-3-(7-Cyclopropoxy-1-methyl-1H-benzo[d][1,2,3]triazol-5-yl)-3-(3-(((R)-5,5-dioxido-7a,8,9,10-tetrahydropyrido[2,3-f]pyrrolo[2,1-d][1,2,5]thiadiazepin-6(7H)-yl)methyl)-4-methylphenyl)propanoic Acid] | 42 nM
1.51 nM | Cc1cc2cc(C(CC(=O)O)c3ccc(C)c(CN4C[C@H]5CCCN5c5ncccc5S4(=O)=O)c3)n(C)c2nn1 (mixture of isomers) [Example 434, 3-(3,7-Dimethyl-7H-pyrrolo[2,3-c]pyridazin-6-yl)-3-(3-(((R)-5,5-dioxido-7a,8,9,10-tetrahydropyrido[2,3-f]pyrrolo[2,1-d][1,2,5]thiadiazepin-6(7H)-yl)methyl)-4-methylphenyl)propanoic Acid] | 3870 nM
602 nM | Cc1ccc(C(CC(N)=O)c2ccn3c(C(F)(F)F)nnc3c2C)cc1CN1C[C@@H]2CCCCN2c2ncccc2S1(=O)=O (stereo in doubt) [Example 547, 3-(3-(((*S)-5,5-Dioxido-7,7a,8,9,10,11-hexahydro-6H-dipyrido[2,1-d:2′,3′-f][1,2,5]thiadiazepin-6-yl)methyl)-4-methylphenyl)-3-(8-methyl-3-(trifluoromethyl)-[1,2,4]triazolo[4,3-a]pyridin-7-yl)propanamide] | 9640 nM
